Reference: patent US20060014825A1, “Novel k99-5278 substance and a process for producing the same” (priority 2002, published 2006)
Converted amounts (≈) assume the structure as drawn.

Legend:
Aspergillus niger KF103 = test: Antifungal activity by liquid culture method (turbidity at 550 nm); type: cell-based; conditions: Aspergillus niger KF103, liquid medium, 27° C. for 48 hours; read-out: IC50 for growth of the test organism
Experimental: (§1) Samples dissolved in DMSO were added in the 96 well microplate and the solvent was distilled off in vacuo. Suspension, in which Aspergillus niger KF103 0.3% was inoculated in a medium (glucose 1.0% and yeast extract 0.5%, pH 6.0), 200 μl/well was added and incubated at 27° C. for 48 hours. After the incubation, turbidity was measured by using absorption spectrometer with wavelength at 550 nm. Activity was determined by setting the value without drug addition as 100%, and the concentration shown by 50% turbidity was set as IC50.

Candida albicans KF1 = test: Antifungal activity by paper disc method; type: cell-based; conditions: 10 μg, GY agar medium, 27° C. for 24 hours
Experimental: (§2) Biological properties of K99-5278 substance of the present invention are explained in detail hereinbelow. • (1) Assays of antifungal activities by paper disc method (filter paper disc method)
(§3) Antifungal activities of K99-5278 substance were performed using Aspergillus niger KF103 (ATCC 6275), Mucor racemosus KF223 (IFO 4581), Candida albicans KF1 and Saccharomyces cerevisiae KF26. Aspergillus niger KF103 (ATCC 6275) and Candida albicans KF1 were inoculated at 0.2%, and Mucor racemosus KF223 (IFO 4581) and Saccharomyces cerevisiae KF26 were inoculated at 0.3% in GY agar medium (glucose 1.0%, yeast extract 0.5%, agar 0.8%, pH 6.0). Activities were evaluated by paper disc method (thickness: 6 mm: Advantec Inc., Japan), and a diameter of the inhibition ring was measured after incubating at 27° C. for 24 hours.

[1] = tested on: Mucor racemosus KF223 (IFO 4581); test: Antifungal activity by paper disc method; type: cell-based; conditions: IFO4581, 10 μg, GY agar medium, 27° C. for 24 hours
Experimental: as §2, §3

[2] = tested on: Saccharomyces cerevisiae KF26; test: Antifungal activity by paper disc method; type: cell-based; conditions: 10 μg, GY agar medium, 27° C. for 24 hours
Experimental: as §2, §3

[3] = tested on: Aspergillus niger KF103 (ATCC 6275); test: Antifungal activity by paper disc method; type: cell-based; conditions: ATCC6275, 10 μg, GY agar medium, 27° C. for 24 hours
Experimental: as §2, §3

Mucor racemosus KF223 = test: Antifungal activity by liquid culture method (turbidity at 550 nm); type: cell-based; conditions: Mucor racemosus KF223, liquid medium, 27° C. for 24 hours; read-out: IC50 for growth of the test organism
Experimental: as §1, with “Mucor racemosus KF223” for “Aspergillus niger KF103”, “24” for “48”

[4] = tested on: Saccharomyces cerevisiae KF26; test: as above; type: cell-based; conditions: Saccharomyces cerevisiae KF26, liquid medium, 27° C. for 24 hours; read-out: IC50 for growth of the test organism
Experimental: as §1, with “Antifungal activities of K99-5278A substance, K99-5278B substance and K99-5278C substance by the liquid medium were performed as follows. • 1) Saccharomyces cerevisiae KF26 was used as a test organism. Samples” for “Samples”, “Saccharomyces cerevisiae KF26” for “Aspergillus niger KF103”, “24” for “48”

Candida albicans KFI = test: as above; type: cell-based; conditions: liquid medium, 27° C. for 24 hours, read-out: IC50 for growth of the test organism
Experimental: as §1, with “Candida albicans KF1” for “Aspergillus niger KF103”, “24” for “48”

Structure (SMILES)	IC50 (Aspergillus niger KF103)	zone of inhibition at 10 µg/disc (Candida albicans KF1)	zone of inhibition at 10 µg/disc [1]	zone of inhibition at 10 µg/disc [2]	zone of inhibition at 10 µg/disc [3]	Solubility in solvent (Solubility in solvent; chloroform)	Solubility in solvent (Solubility in solvent; dimethyl sulfoxide (DMSO))	Solubility in solvent (Solubility in solvent; ethyl acetate)	Solubility in solvent (Solubility in solvent; hexane)	Solubility in solvent (Solubility in solvent; methanol)	Solubility in solvent (Solubility in solvent; water)	IC50 (Mucor racemosus KF223)	IC50 [4]	IC50 (Candida albicans KFI)
CC1/C=C/C=C/C=C/C=C/C=C/C(O)CC(O)CC(O)CC(O)CCCC(O)CC(O)C(C)C(=O)OC1C (stereo not drawn) [K99-5278A substance]	0.32 µg/mL (≈ 0.596 µM)	9 mm	9 mm	12 mm	18 mm	slightly soluble	soluble	slightly soluble	insoluble	soluble	insoluble	15 µg/mL (≈ 27.9 µM)	7.2 µg/mL (≈ 13.4 µM)	61 µg/mL (≈ 114 µM)
CCC1OC(=O)C(C)C(O)CC(O)CCCC(O)CC(O)CC(O)C(C)C(O)/C=C/C=C/C=C/C=C/C=C/C1C (stereo not drawn) [K99-5278B substance]	0.53 µg/mL (≈ 0.938 µM)	7 mm	9 mm	12 mm	16 mm	insoluble	soluble	insoluble	insoluble	soluble	insoluble	25 µg/mL (≈ 44.3 µM)	11.8 µg/mL (≈ 20.9 µM)	100 µg/mL (≈ 177 µM)
CC(C)C1OC(=O)C(C)C(O)CC(O)CCCC(O)CC(O)CC(O)C(C)C(O)/C=C/C=C/C=C/C=C/C=C/C1C (stereo not drawn) [K99-5278C substance]	0.75 µg/mL (≈ 1.3 µM)	8 mm	8 mm	9 mm	15 mm	slightly soluble	soluble	slightly soluble	insoluble	soluble	insoluble	35 µg/mL (≈ 60.5 µM)	16.6 µg/mL (≈ 28.7 µM)	140 µg/mL (≈ 242 µM)
